Reference: patent US6812015B1, “Histidine protein-phosphatase” (Merck Patent Gesellschaft, priority 1999, dated 2004)
Where two headings read alike, the source gives them in different places.

Assays:
[1] = system: histidine phosphatase; test: Reagents affecting histidine phosphatase activity (dephosphorylation of 32P-CheA); type: biochemical, rabbit
Experimental: (§1) The activity of the soluble histidine phosphatase is determined from the dephosphorylation of ^32P-labelled histidine-phosphorylated protein (CheA) as substrate. CheA is a recombinant bacterial histidine autokinase (Bilwes A M, Alex L A, Crane B R, Simon M I (1999) Cell 96:131-141); the C-terminal kinase domain phosphorylates the N-terminal His48. […] Detection on the one hand via ammonium molybdate, and on the other hand by autoradiography (FIG. 2).
(§2) The substrate (10 μl of ^32P-CheA) is mixed with […] of assay buffer (100 mM triethanolamine/hydrochloric acid pH 8.0, 0.1% 2-mercaptoethanol, 0.02% sodium nitrite) and the enzyme solution. The reaction takes place at 37° C. in 30 min. […] After a centrifugation (5 min at 15,800 g), the supernatant is removed and measured in a scintillation counter.

[2] = system: histidine protein phosphatase; test: Hydrolysis of substrates by the novel histidine protein phosphatase (specificity); type: biochemical, rabbit
Experimental: as §1, §2

[3] = molecular target: histidine protein phosphatase purified from rabbit liver (rabbit) (UniProt P83468); test: cell-based or functional assay
[4] = type: physicochemical, rabbit; details: in the crude homogenate and in the partially purified fractions
[5] = molecular target: [gamma-32P] Ser/Thr-Casein
[6] = molecular target: 32P-labelled histidine-phosphorylated CheA (recombinant bacterial histidine autokinase)
[7] = molecular target: [gamma-32P] His-nucleoside diphosphate kinase

[Ca+2] [Ca^2+]
Activity (%) ([1]; reagent concentration 1 mM): 165% | Activity (%) ([1]; reagent concentration 10 mM): 240%

O=C(O)CN(CCOCCOCCN(CC(=O)O)CC(=O)O)CC(=O)O [EGTA]
Activity (%) ([1]; reagent concentration 5 mM): 91%

[Mg+2] [Mg^2+]
Activity (%) ([1]; reagent concentration 1 mM): 142% | Activity (%) ([1]; reagent concentration 10 mM): 226%

[O]=[Mo](=[O])([O-])[O-] [Molybdate]
Activity (%) ([1]; 10 µM): 71%

C=C1[C@@H](O)[C@@H]2O[C@]3(CC[C@H](/C=C/[C@@H](C)[C@@H]4CC(C)=C[C@@]5(O[C@H](C[C@@](C)(O)C(=O)O)CC[C@H]5O)O4)O3)CC[C@H]2O[C@@H]1[C@@H](O)C[C@H](C)[C@H]1O[C@@]2(CCCCO2)CC[C@H]1C [Okadaic acid]
Activity (%) ([1]; reagent concentration 10 μM): 108% | Inhibition of histidine phosphatase activity ([1]; text statement referring to Table 2): not being inhibited

CO[C@H]([C@H](O)CC(=O)[C@@H](C)[C@@H](O)CC[C@@H](C)[C@@H]1O[C@]2(CC[C@@H](C)[C@H](CC[C@H](C)C(C)=O)O2)CC[C@@H]1C)[C@H](OC(=O)C[C@@H](O)C1=C(C)C(=O)OC1=O)C(C)C [Tautomycin]
Activity (%) ([1]; reagent concentration 0.5 nM): 90%

[O]=[V]([O-])([O-])[O-] [Vanadate]
Inhibition of histidine phosphatase activity [1]: not being inhibited | Activity (%) ([1]; 10 µM): 62%

O=[N+]([O-])c1ccc(OP(=O)(O)O)cc1 [p-nitrophenyl phosphate]
Hydrolysis by the histidine phosphatase [2]: did not hydrolyze

Inhibitor protein I1
Activity (%) of histidine phosphatase with 1 nM reagent [3]: 120%

Microcystin
Activity (%) ([1]; 0.005 µM): 110%

B1: histidine protein phosphatase purified from rabbit liver (protein)
chain: AAAGLAQIPDVDIDSDGVFKYVLIRVHAAPPSEAPGGESKDIVRGYKWAEYHADIYDKVSGELQKKGHDCECLGGGRISHQSQDRKIHVYGYSMGYGRAQHSVSTEKIRAKYPDYEVTWADDGY
storage stability [4]: shows storage stability | Hydrolysis by the novel histidin protein phosphatase [5]: - | Hydrolysis by the novel histidin protein phosphatase [6]: + | histidine dephosphorylation of 32P-phosphorylated CheA [6]: The purified protein shows time-, temperature-, pH- and protein-dependent histidine dephosphorylation of the 32P-phosphorylated CheA | Hydrolysis by the novel histidin protein phosphatase [7]: -
